Source: ChEMBL document CHEMBL1125129, “Design of potent and selective linear antagonists of vasopressor (V1-receptor) responses to vasopressin” (J Med Chem, 1990)

Columns and labels:
Vasopressin V1 receptor = Vasopressin V1 receptor (Rattus norvegicus, UniProt P48974+P30560); assay: pA2 value was determined for Vasopressin V1 receptor antagonistic activity in vivo in anesthetized rats; assay type: functional, organism-based
Rattus norvegicus = assay: pA2 value was determined for antidiuretic V2 antagonistic activity in vivo in anesthetized rats pA2 value was determined for antidiuretic V2 antagonistic activity in vivo in anesthetized rats; assay type: functional, organism-based; details: Urine, read-out: pA2 (converted)
Vasopressin V2 receptor = Vasopressin V2 receptor (Rattus norvegicus, UniProt Q00788); assay: Vasopressin V2 receptor antagonistic activity in vivo in anesthetized rats; assay type: functional, organism-based; details: for Kb: read-out: pA2 (converted)
Vasopressin V2 receptor, sequence (Q00788 whole entry): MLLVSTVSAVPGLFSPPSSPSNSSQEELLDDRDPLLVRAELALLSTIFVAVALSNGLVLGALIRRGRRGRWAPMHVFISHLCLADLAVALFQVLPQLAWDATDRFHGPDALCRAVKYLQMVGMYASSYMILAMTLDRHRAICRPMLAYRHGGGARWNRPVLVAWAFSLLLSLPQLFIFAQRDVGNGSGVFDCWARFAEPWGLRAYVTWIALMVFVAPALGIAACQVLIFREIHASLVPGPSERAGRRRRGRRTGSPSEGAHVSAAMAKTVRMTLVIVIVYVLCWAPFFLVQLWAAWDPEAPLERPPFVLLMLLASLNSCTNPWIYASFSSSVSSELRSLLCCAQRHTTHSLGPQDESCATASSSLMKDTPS

[1] = target: Vasopressin V2 receptor (Rattus norvegicus) (UniProt Q00788); assay: Effective dose was determined for Vasopressin V2 receptor antagonistic activity in vivo in anesthetized rats; assay type: functional, organism-based
Vasopressin V2 receptor (Rattus norvegicus), sequence (Q00788 whole entry): as above

[2] = target: Vasopressin V2 receptor (Rattus norvegicus) (UniProt Q00788); assay: Selectivity ratio of antidiuretic Vasopressin V2 receptor ED /[…] receptor ED; details: Urine
[3] = target: Vasopressin V1 receptor (Rattus norvegicus) (UniProt P48974+P30560); assay: Effective dose was determined for Vasopressin V1 receptor antagonistic activity in vivo in anesthetized rats; assay type: functional, organism-based
Vasopressin V1 receptor (Rattus norvegicus), sequence (P30560 whole entry, looked up): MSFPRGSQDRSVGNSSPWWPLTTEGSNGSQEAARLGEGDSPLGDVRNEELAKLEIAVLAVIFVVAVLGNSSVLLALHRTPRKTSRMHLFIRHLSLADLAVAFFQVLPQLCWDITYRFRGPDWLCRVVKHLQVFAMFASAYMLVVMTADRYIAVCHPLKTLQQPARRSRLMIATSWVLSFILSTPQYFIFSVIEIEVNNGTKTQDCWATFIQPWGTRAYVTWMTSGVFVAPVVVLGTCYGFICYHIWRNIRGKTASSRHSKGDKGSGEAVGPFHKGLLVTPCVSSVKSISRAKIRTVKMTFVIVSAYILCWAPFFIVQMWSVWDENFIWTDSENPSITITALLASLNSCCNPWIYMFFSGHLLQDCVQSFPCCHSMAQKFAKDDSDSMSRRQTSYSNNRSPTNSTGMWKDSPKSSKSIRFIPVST
Vasopressin V1 receptor (Rattus norvegicus), sequence (P48974 whole entry, looked up): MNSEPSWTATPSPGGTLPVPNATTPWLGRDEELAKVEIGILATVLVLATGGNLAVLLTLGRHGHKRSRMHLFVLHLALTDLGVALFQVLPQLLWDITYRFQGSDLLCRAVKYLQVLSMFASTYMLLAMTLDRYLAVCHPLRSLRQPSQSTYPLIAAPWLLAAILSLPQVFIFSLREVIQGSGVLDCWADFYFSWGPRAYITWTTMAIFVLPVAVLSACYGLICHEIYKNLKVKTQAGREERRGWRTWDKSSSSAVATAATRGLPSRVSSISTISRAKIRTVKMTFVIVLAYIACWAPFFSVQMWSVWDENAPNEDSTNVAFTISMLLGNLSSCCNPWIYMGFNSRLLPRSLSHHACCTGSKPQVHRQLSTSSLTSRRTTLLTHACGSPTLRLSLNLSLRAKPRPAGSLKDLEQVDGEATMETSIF

Structure (SMILES) | pA2 (Vasopressin V1 receptor) | Kb (Vasopressin V2 receptor) [nM] | Kb (Rattus norvegicus) [nM] | other results
CCOc1ccc(C[C@@H](NC(=O)Cc2ccccc2)C(=O)N[C@@H](Cc2ccccc2)C(=O)N[C@H](C(=O)N[C@@H](CC(N)=O)C(=O)N[C@@H](CCCCN)C(=O)N2CCC[C@H]2C(=O)N[C@@H](CCCN=C(N)N)C(N)=O)C(C)C)cc1 | 8.81 | 43.7 |  | 
CCOc1ccc(C[C@@H](NC(=O)Cc2ccccc2)C(=O)N[C@@H](Cc2ccccc2)C(=O)N[C@@H](CCC(N)=O)C(=O)N[C@@H](CC(N)=O)C(=O)N[C@@H](CCCCN)C(=O)N2CCC[C@H]2C(=O)N[C@@H](CCCN=C(N)N)C(N)=O)cc1 | 9.05 |  | 501 | 
CCOc1ccc(C[C@@H](NC(=O)CC(C)(C)C)C(=O)N[C@@H](Cc2ccccc2)C(=O)N[C@H](C(=O)N[C@@H](CC(N)=O)C(=O)N[C@@H](CCCCN)C(=O)N2CCC[C@H]2C(=O)N[C@@H](CCCN=C(N)N)C(N)=O)C(C)C)cc1 | 8.63 |  | 100 | 
CC(C)[C@H](NC(=O)[C@H](Cc1ccccc1)NC(=O)[C@@H](Cc1ccc(O)cc1)NC(=O)CC12CC3CC(CC(C3)C1)C2)C(=O)N[C@@H](CC(N)=O)C(=O)N[C@@H](CCCN=C(N)N)C(=O)N1CCC[C@H]1C(=O)N[C@@H](CCCN=C(N)N)C(=O)N[C@@H](CCCN=C(N)N)C(N)=O | 8.22 | 21.9 |  | 
CCOc1ccc(C[C@@H](NC(=O)CC23CC4CC(CC(C4)C2)C3)C(=O)N[C@@H](Cc2ccccc2)C(=O)N[C@H](C(=O)N[C@@H](CC(N)=O)C(=O)N[C@@H](CCCN=C(N)N)C(=O)N(C)[C@@H](C)C(=O)N[C@@H](CCCN=C(N)N)C(N)=O)C(C)C)cc1 | 8.28 |  | 17 | Effective dose [1]: 1.2 nM/kg; Ratio [2]: 3.2; Effective dose [3]: 0.37 nM/kg
COc1ccc(C[C@@H](NC(=O)Cc2ccccc2)C(=O)N[C@@H](Cc2ccccc2)C(=O)N[C@H](C(=O)N[C@@H](CC(N)=O)C(=O)N[C@@H](CCCCN)C(=O)N2CCC[C@H]2C(=O)N[C@@H](CCCN=C(N)N)C(N)=O)C(C)C)cc1 | 8.61 | 100 |  | 
CCOc1ccc(C[C@@H](NC(=O)Cc2ccccc2)C(=O)N[C@@H](Cc2ccccc2)C(=O)N[C@H](C(=O)N[C@@H](CC(N)=O)C(=O)N[C@@H](CCCCN)C(=O)N2CCC[C@H]2C(=O)N[C@@H](CCCN=C(N)N)C(=O)N[C@@H](CCCN=C(N)N)C(N)=O)C(C)C)cc1 | 8.47 |  | ~141 | 
CCOc1ccc(C[C@H]2NC(=O)CC3(CCCCC3)SSC[C@@H](C(=O)N3CCC[C@H]3C(=O)N[C@@H](CCCN=C(N)N)C(N)=O)NC(=O)[C@H](CC(N)=O)NC(=O)[C@H](C(C)C)NC(=O)[C@H](Cc3ccccc3)NC2=O)cc1 | 8.17 |  | 20.4 | 
COc1ccc(C[C@@H](NC(=O)Cc2ccccc2)C(=O)N[C@@H](Cc2ccccc2)C(=O)N[C@@H](CCC(N)=O)C(=O)N[C@@H](CC(N)=O)C(=O)N[C@@H](CCCCN)C(=O)N2CCC[C@H]2C(=O)N[C@@H](CCCN=C(N)N)C(N)=O)cc1 | 8.93 |  | > 316 | 
CCOc1ccc(C[C@@H](NC(=O)Cc2ccccc2)C(=O)N[C@@H](Cc2ccccc2)C(=O)N[C@H](C(=O)N[C@@H](CC(N)=O)C(=O)NCCCC(=O)N2CCC[C@H]2C(=O)N[C@@H](CCCN=C(N)N)C(=O)N[C@@H](CCCN=C(N)N)C(N)=O)C(C)C)cc1 | 8.42 | 10.2 |  | 
CCOc1ccc(C[C@@H](NC(=O)CC(C)(C)C)C(=O)N[C@@H](Cc2ccccc2)C(=O)N[C@H](C(=O)N[C@@H](CC(N)=O)C(=O)N[C@@H](CCCN=C(N)N)C(=O)N(C)[C@@H](C)C(=O)N[C@@H](CCCN=C(N)N)C(N)=O)C(C)C)cc1 | 8.34 | 251 |  | Effective dose [1]: 16 nM/kg; Ratio [2]: 53; Effective dose [3]: 0.3 nM/kg

Now from value to compound, other results behind:

pA2 (Vasopressin V1 receptor) | Kb (Vasopressin V2 receptor) [nM] | Structure (SMILES) | Kb (Rattus norvegicus) [nM] | other results
8.01 |  | CCOc1ccc(C[C@@H](NC(=O)CC23CC4CC(CC(C4)C2)C3)C(=O)N[C@@H](Cc2ccccc2)C(=O)N[C@H](C(=O)N[C@@H](CC(N)=O)C(=O)N[C@@H](CCCN=C(N)N)C(=O)N2CCC[C@H]2C(=O)N[C@@H](CCCN=C(N)N)C(N)=O)C(C)C)cc1 | 18.6 | 
7.75 | 7.76 | CCOc1ccc(C[C@@H](NC(=O)CC23C[C@H]4C[C@@H](C2)C[C@@H](C3)C4)C(=O)N[C@@H](Cc2ccccc2)C(=O)N[C@H](C(=O)N[C@@H](CC(N)=O)C(=O)NCCCC(=O)N2CCC[C@H]2C(=O)N[C@@H](CCCN=C(N)N)C(=O)N[C@@H](CCCN=C(N)N)C(N)=O)C(C)C)cc1 |  | 
7.64 |  | CCOc1ccc(C[C@@H](NC(=O)CC23CC4CC(CC(C4)C2)C3)C(=O)N[C@@H](Cc2ccccc2)C(=O)N[C@H](C(=O)N[C@@H](CC(N)=O)C(=O)N[C@@H](CCCN)C(=O)N2CCC[C@H]2C(=O)N[C@@H](CCCN=C(N)N)C(=O)N[C@@H](CCCN=C(N)N)C(N)=O)C(C)C)cc1 | ~12.6 | 
7.33 |  | CCOc1ccc(C[C@@H](NC(=O)CC23CC4CC(CC(C4)C2)C3)C(=O)N[C@@H](Cc2ccccc2)C(=O)N[C@H](C(=O)N[C@@H](CC(N)=O)C(=O)N[C@@H](CCCN)C(=O)N2CCC[C@H]2C(=O)N[C@@H](CCCN=C(N)N)C(N)=O)C(C)C)cc1 | 15.5 | 
7.43 |  | CCOc1ccc(C[C@@H](NC(=O)CC23C[C@H]4C[C@@H](C2)C[C@@H](C3)C4)C(=O)N[C@@H](Cc2ccccc2)C(=O)N[C@H](C(=O)N[C@@H](CC(N)=O)C(=O)N[C@@H](CC)C(=O)N2CCC[C@H]2C(=O)N[C@@H](CCCN=C(N)N)C(N)=O)C(C)C)cc1 |  | pA2 (Vasopressin V2 receptor): 7.21
8.13 |  | CCOc1ccc(C[C@@H](NC(=O)CC23CC4CC(CC(C4)C2)C3)C(=O)N[C@@H](Cc2ccccc2)C(=O)N[C@H](C(=O)N[C@@H](CC(N)=O)C(=O)N[C@@H](CCCN=C(N)N)C(=O)N2CCC[C@H]2C(=O)N[C@@H](CCCN=C(N)N)C(=O)N[C@@H](CCCN=C(N)N)C(N)=O)C(C)C)cc1 | 10.5 | 
